System: endothelial nitric oxide synthase
Assay: Screen for endothelial nitric oxide synthase inhibiting activity
Assay type: biochemical, human
Settings: reference standard at 1 μM; endothelial enzyme from HUVECs
From the text: Nitric oxide synthase converts ^3 H-L-arginine into ^3 H-L-citrulline which can be separated by cation exchange chromatography and quantified by scintillation counting.
The enzyme is isolated from human umbilical vein endothelial cells (HUVECs) by a procedure based on that of Pollock et al in Proc. Natl. Acad. Sci., 1991, 88, 10480-10484. HUVECs were purchased from Clonetics Corp (San Diego, Calif., USA) and cultured to confluency. Cells can be maintained to passage 35-40 without significant loss of yield of nitric oxide synthase. When cells reach confluency, they are resuspended in Dulbecco's phosphate buffered saline, centrifuged at 800 rpm for 10 minutes, and the cell pellet is then homogenised in ice-cold 50 mM Tris-HCl, 1 mM EDTA, 10% glycerol, 1 mM phenylmethylsulphonylfluoride, 2 μM leupeptin at pH 4.2. Following centrifugation at 34,000 rpm for 60 minutes, the pellet is solubilised in the homogenisation buffer which also contains 20 mM CHAPS. After a 30 minute incubation on ice, the suspension is centrifuged at 34,000 rpm for 30 minutes. The resulting supernatant is stored at -80° C. until use. […]
Labelled L-citrulline is separated from labelled L-arginine by chromatography over a Dowex AG-50W-X8 200-400 mesh column. […] The L-citrulline is then quantified by scintillation counting. […]

## N=C(NCCC[C@H](N)C(=O)O)N[N+](=O)[O-] [N-nitro-L-arginine]
  inhibition of nitric oxide synthetase: 70-90%
